Values after ≈ are worked out from the molar mass of the structure shown. Numbered stars: 1 amine (or outer) side, 2 acyl side, 3 side chain; on linkers, the order of the positions; unused ones are H or OH. Bridge positions count the residues as written; N and C are the ends. Square brackets hold non-standard residues; d marks the D form. Side chains are listed from the residue outwards. Ends that are not written are not given here. Peptide text beside a SMILES is read from it. I, II: the chains in the order shown. X1 = O=C(CO[*:1])[*:2]; βAla = NCCC(=O)O

The subject of data set [1] is butelase 1. Description: Butelase-mediated ligation kinetic characterization (Lineweaver-Burk). The data set is classed as biochemical, Clitoria ternatea. As to conditions: 0.1 μM butelase 1, 1 mM GIGGIR, peptide 25 to 400 μM, pH 6.5, 42° C. How it is done:
Ligation assays were performed in 50-μl mixtures containing reaction buffer (1 mM EDTA, 20 mM phosphate buffer, pH 6.5), 0.1 […] butelase 1, 1 mM GIGGIR (SEQ ID NO:114) and varying concentrations of peptides 1-4 (25 to 400 μM). The reactions were performed in triplicate at 42° C. and quenched by adding 5 μl of 1 M HCl solution. The peptides were separated by using a reversed-phase C18 analytical column (150×2.1 mm, Vydac) with a linear gradient from 5% to 40% acetonitrile over 15 min on a Nexera UHPLC system (Shimadzu). The ligation velocities were calculated by converting the HPLC-peak areas of remained linear precursors or the ligated products into concentrations. The identity of each HPLC peak was analyzed by MALDI-TOF MS (ABI 4800 MALDI TOF/TOF). The kinetic parameters (kcat and Km) for each peptide were obtained by the LineweaverBurk plot.

Data set [2] can be described thus: Degradation time course of peptide in reaction buffer without butelase 1 (HPLC). As to conditions: absence of butelase 1, peptide 100 μM, 42° C. The data set is classed as physicochemical. How it is done: (§1) FIG. 9. Degradation time course for thiodepsipeptide 1 and depsipeptide 2. Each peptide (100 μM) was incubated in the absence or presence of butelase 1 (50 nM) at 42° C. The peptide stability was monitored by HPLC every […].
(§2) To apply butelase 1 for N-terminal labeling of proteins, inventors used ubiquitin and green fluorescent protein (GFP) as examples (FIG. 4). Since butelase 1 prefers a hydrophobic amino acid (Ile/Leu/Val) or Cys at the P2″ position of an acceptor nucleophile, inventors prepared a recombinant ubiquitin protein (SEQ ID NO:122) with Gly-Ile at the N-terminus and His-tag at the C-terminus. It was also examined whether this method would work if His-tag was located at the N-terminus. Inventors thus prepared a recombinant GFP (SEQ ID NO:123) with an additional Ile inserted between the start codon and the N-terminal His-tag. Both proteins were labeled with the model thiodepsipeptide 1 in the presence of 0.001 molar equivalent of butelase 1. The labeling of proteins was slower as compared to the labeling of peptide 5, probably due to large differences in size between the model peptide and proteins. Furthermore, the N-terminal amino group of proteins may have a lower accessibility to butelase 1 as compared to peptides. […]

Data set [3] concerns butelase 1. Put plainly: Degradation time course of peptide in the presence of butelase 1 (HPLC). The data set is classed as biochemical. As to conditions: Clitoria ternatea, butelase 1 in reaction buffer, presence of 0.0005 molar equivalent of butelase 1 (50 nM), peptide 100 μM, 42° C. How it is done:
as §1, §2

Data set [4] relates to E. coli. Format: cell-based. As to the method: (§3) The materials for radial diffusion assay were prepared as following:
(§4) Trypticase soy broth (TSB): Full-strength broth contains 30 grams of TSB powder per liter of deionized water. It was autoclaved at 120° C. for 20 min and stored at room temperature.
(§5) Underlay gel: 50 mL of […] sodium phosphate buffer, 5 ml full-strength TSB and 5 g agarose were mixed in a beaker followed by addition of deionized water to 500 mL. The medium was autoclaved at 120° C. for 20 min. Before use, it was maintained at 42° C. to prevent from solidifying.
(§6) Overlay gel: One liter of overlay gel contains 60 g of TSB powder and 10 g of agarose. The medium was autoclaved at 120° C. for 20 min. To prevent from solidifying, it was maintained at 42° C. before use.
(§7) The following protocol was applied to the radial diffusion assay.
(§8) 1. A single colony was picked and transferred into a 5 ml tube containing 2.5 ml TSB. The culture was shaken at 37° C. for 18 h.
(§9) 2. 50 μl of the stationary phase culture was diluted to 2.5 mL of autoclaved TSB (1:50 dilution) and shaken at 37° C. for another 3 h.
(§10) 3. This subculture was centrifuged at 5000 rpm for 5 min and the supernatant was discarded. The residual cells were washed with cold sterile 10 mM phosphate buffer, pH 7.4 and the buffer was discarded after centrifuge. 5 ml of the same buffer was added to resuspend the cells and its bacteria concentration was determined by measuring its optical density at 620 nm.
(§11) 4. 10 ml of antoclaved, molten underlay gel agar was transferred to a 15-ml eppendorf tube and mixed with 4×10^6 CFU of bacteria by vortexing. The mixture was then poured into a petri dish and gelled in less than […]. Wells were punched against the gel using a Pasteur pippette.
(§12) 5. Peptides to be tested were serially diluted and 3.5 μl of each sample was added to the well. The plates were incubated at 37° C. for 3 h with gel-side up.
(§13) 6. Next, each underlay gel was covered with 10 ml of overlay gel. After the gel solidified, the plates were turned gel-side up and incubated at 37° C. for overnight.
(§14) 7. The following morning, all the plates were taken out and the zone diameters were measured with ruler. All the samples were tested in duplicates and the results were averaged. The final minimum inhibition concentration (MIC) was determined using excel.
(§15) There is a growing interest to develop peptide-based antibiotics (Annu Rev Immunol. 1995, 13, 61-92; J Intern Med. 2003, 254, 197-215; Cent Eur J Biol 2007, 2, 1-33; Int J Pept Res Ther. 2010, 16, 199-213) because, compared with conventional antibiotics, they are less likely to develop drug resistance and have fewer side effects (J Med Chem. 2015, 58, 6533-6548; Biochemistry-Us. 2000, 39, 7159-7169; Eur J Biochem. 2000, 267, 3289-3300; Nucleic Acids Res. 2012, 40, W199-204). To apply the presently disclosed enzymatic method in preparing dendrimeric antimicrobials, inventors synthesized two antimicrobials 12 (bivalent) and 13 (tetravalent) (MS shown in supporting information) which harbored a tetrapeptide RLYR (SEQ ID NO:121) as the antibacterial sequence (Eur J Biochem. 2002, 269, 923-932) by ligating N-acetylated thiodepsipeptide 10 Ac-RLYRN-thioglc-V (SEQ ID NO:120) with dendron core 2 and 6 respectively. The RLYR (SEQ ID NO:121) tetrapeptide contains a BHHB motif (B=basic, H=hydrophobic) which is commonly found in certain potent and broad-spectrum β-stranded antimicrobial peptides (BioDrugs. 2013, 27, 479-493) such as PG (protegrins) (Febs Lett. 1993, 327, 231-236) and RTD-1 (rhesus monkey theta defensin) (Science. 1999, 286, 498-502). This consensus motif with positive charged and hydrophobic residues was successfully used as a dendrimeric antimicrobial in 2002 (Eur J Biochem. 2002, 269, 923-932). Such short peptide-based dendrimeric antimicrobials are broad-spectrum antibiotics and kill bacterial cells through electrostatic and hydrophobic interactions with the negatively charged microbial cytoplasmic membranes (Biochemistry-Us. 2009, 48, 5642-5657). […]

Data set [5] has as its system S. aureus. Format: cell-based. As to the method:
as §3, §4, §5, §6, §7, §8, §9, §10, §11, §12, §13, §14, §15

Data set [6] has as its system butelase 1. As to conditions: highest reported value; cited from earlier work.

A word on the Km: it is the substrate concentration at which the rate is half of its maximum. As usually defined, the kcat is the number of substrate molecules converted per active site and unit of time at saturation. The term half-life denotes how long it takes for the measured level to halve. With `CC(C)[C@H](NC(=O)CSC(=O)[C@H](CC(N)=O)NC(=O)[C@H](CCCCN)NC(=O)[C@@H](N)Cc1ccc(O)cc1)C(N)=O` [Peptide 1, YKN(S)GV], in data set [1], the Km was 2760 ± 300 µM and the kcat stood at 56.5 ± 7.5 s⁻¹. In addition, in data set [2], the half-life at 100 μM is ~75 min. Also, in data set [3], the half-life at 100 μM was 40 min.
The MIC is the lowest concentration that inhibits growth of the organism. The low end stands for greater potency, the high end for weaker potency. For `CC(C)C[C@H](NC(=O)[C@@H](N)CCCNC(=N)N)C(=O)N[C@@H](Cc1ccc(O)cc1)C(=O)N[C@@H](CCCNC(=N)N)C(N)=O` [Monomer 11, RLYR, reference compound] (H-RLYR-NH2; N-terminus assumed), the MIC in data set [4] and in data set [5] was >300 µM each time. Moreover, the “antimicrobial activity (in words)” value in data set [4] (E. coli, high-salt condition (100 mM NaCl)) is “no appreciable activity”; in data set [5] (S. aureus, high-salt condition (100 mM NaCl)), “no appreciable activity”.
As for `CC(C)[C@H](NC(=O)COC(=O)[C@H](CC(N)=O)NC(=O)[C@H](CCCCN)NC(=O)[C@@H](N)Cc1ccc(O)cc1)C(N)=O` [Peptide 2, YKN(O)GV] (H-YKN[X1]V-NH2; N-terminus assumed), in data set [1], the Km turned out to be 740 ± 10 µM and the kcat was 12.4 ± 0.32 s⁻¹. The half-life at 100 μM in data set [2] was determined as 45 min. Also, the half-life at 100 μM in data set [3] is 37 min.
For the molecule “YKNGV (not fully specified (C-terminus)) [Peptide 4]”, in data set [1], the Km was determined as 880 ± 80 µM and the kcat was 7.9 ± 0.72 s⁻¹.
On to `CC[C@H](C)[C@H](NC(=O)[C@H](CCCNC(=N)N)NC(=O)[C@H](CC(N)=O)NC(=O)[C@H](CCCNC(=N)N)NC(=O)[C@H](Cc1ccc(O)cc1)NC(=O)[C@H](CC(C)C)NC(=O)[C@H](CCCNC(=N)N)NC(C)=O)C(=O)NCCC(=O)NCCCC[C@H](NC(=O)CCNC(=O)[C@@H](NC(=O)[C@H](CCCNC(=N)N)NC(=O)[C@H](CC(N)=O)NC(=O)[C@H](CCCNC(=N)N)NC(=O)[C@H](Cc1ccc(O)cc1)NC(=O)[C@H](CC(C)C)NC(=O)[C@H](CCCNC(=N)N)NC(C)=O)[C@@H](C)CC)C(=O)N[C@@H](Cc1ccc(O)cc1)C(N)=O` [Dimer 12, (Ac-RLYRNRIβA)2KY] (I: Ac-RLYRNRI[βAla]KY-NH2 / II: Ac-RLYRNRI[βAla]; amide I:9-II:C), for which the MIC came to 18.3 µM (≈ 45.4 µg/mL) in data set [4] and 3.4 µM (≈ 8.43 µg/mL) in data set [5].
As for “YKNHV (not fully specified (C-terminus)) [Peptide 3]”, in data set [1], the Km turned out to be 300 ± 10 µM and the catalytic constant (kcat) was found to be 4.1 ± 0.65 s⁻¹.
Turning to `CC[C@H](C)[C@H](NC(=O)[C@@H](N)CCCNC(=N)N)C(=O)NCCC(=O)NCCCC[C@H](NC(=O)CCNC(=O)[C@@H](NC(=O)[C@@H](N)CCCNC(=N)N)[C@@H](C)CC)C(=O)N[C@@H](Cc1ccc(O)cc1)C(N)=O` [Bivalent dendron core 2, (RIβA)2KY] (H-RI[βAla]K([βAla-Ile-Arg])Y-NH2; N-terminus assumed), the MIC in data set [4] and in data set [5] was >150 µM throughout.
Regarding `CC[C@H](C)[C@H](NC(=O)[C@@H](N)CCCNC(=N)N)C(=O)NCCC(=O)NCCCC[C@H](NC(=O)CCNC(=O)[C@@H](NC(=O)[C@@H](N)CCCNC(=N)N)[C@@H](C)CC)C(=O)NCCCC[C@H](NC(=O)[C@H](CCCCNC(=O)CCNC(=O)[C@@H](NC(=O)[C@@H](N)CCCNC(=N)N)[C@@H](C)CC)NC(=O)CCNC(=O)[C@@H](NC(=O)[C@@H](N)CCCNC(=N)N)[C@@H](C)CC)C(=O)N[C@@H](Cc1ccc(O)cc1)C(N)=O` [Tetravalent dendron core 6, (RIβA)4K2KY], the minimal inhibitory concentration (MIC) in data set [4] and in data set [5] was >150 µM throughout.

B1: Butelase 1: Asn/Asp(Asx)-specific ligase isolated from the medicinal plant Clitoria ternatea (SEQ ID NO:1) (protein, listed as Clitoria ternatea)
chain: VEGTRWAVLVAGSKGYVNYRHQADVCHAYQILKKGGLKDENIIVFMYDDIAYNESNPHPGVIINHPYGSDVYKGVPKDYVGEDINPPNFYAVLLANKSALTGTGSGKVLDSGPNDHVFIYYTDHGGAGVLGMPSKPYIAASDLNDVLKKKHASGTYKSIVFYVESCESGSMFDGLLPEDHNIYVMGASDTGESSWVTYCPLQHPSPPPEYDVCVGDLFSVAWLEDCDVHNLQTETFQQQYEVVKNKTIVALIEDGTHVVQYGDVGLSKQTLFVYMGTDPANDNNTFTDKNSLGTPRKAVSQRDADLIHYWEKYRRAPEGSSRKAEAKKQLREVMAHRMHIDN
B1: in data set [6], the catalytic efficiency result is reported as “up to 542,000 M^−1 s^−1”.

These data come from patent US11091786B2, “Butelase-mediated peptide ligation” (Nanyang Technological University, priority 2015, dated 2021).
